Reference: patent publication US8314139B2, “Toluene sulfonic acid salt of a therapeutic compound and pharmaceutical compositions thereof” (Pfizer Inc., priority 2007, dated 2012)
Where a name gives a salt, the structure may show the parent alone.

What was measured:
[1] = Aqueous solubility (RP-HPLC after temperature cycling); assay type: physicochemical; settings: for solubility at 25 h: thermodynamic from solid
Description: The following information was determined in regard of aqueous solubility. […] These values represent the solubility of the crystalline compound determined via RP-HPLC analysis after subjecting the drug media mixture to a temperature cycling program (40° C. for 8 hours, 15° C. for 5 hours, and 25° C. for 12 hours).

[2] = Hygroscopicity by dynamic vapor sorption (DVS); assay type: physicochemical
Description: Hygroscopicity was assessed using a dynamic vapor sorption technique in which an accurately weighed sample is subjected to progressively changing water vapor pressure while simultaneously recording the weight change. The experiment is conducted isothermally at 25° C.
FIG. 3 provides a moisture sorption isotherm of the tosylate salt of trans-N-ethyl-3-fluoro-3-[3-fluoro-4-(pyrrolidin-1-ylmethyl)phenyl]cyclobutanecarboxamide, with absorption as the (♦) curve and desorption as the (▪) curve, plotting percent change in weight as a function of relative humidity, using the kinetic flow through method (8.1 mg sample, 25° C.).
During the initial drying cycle (25° C., 1% RH), less than 0.1% weight loss was observed, which is consistent with an anhydrous non-hygroscopic form. An approximate 0.06% increase in weight was detected by DVS analysis when a sample was exposed to relative humidities from 5% to 90% at 25° C. The desorption phase mimicked the sorption phase when the relative humidity was decreased to 5% (see FIG. 3). Additionally, the powder x-ray diffraction pattern for the sample after hygroscopicity testing matched the pattern of the sample prior to that testing.

CCNC(=O)[C@H]1C[C@@](F)(c2ccc(CN3CCCC3)c(F)c2)C1 [tosylate salt, (trans)-3-fluoro-3-[3-fluoro-4-(pyrrolidin-1-ylmethyl)phenyl]cyclobutanecarboxylic acid ethylamide tosylate salt]
solubility at 25 h ([1]; 25 °C, fassif, 0.1M phosphate buffered saline with 0.5 weight percent sodium tauracholate/phosphatidyl choline salts, final pH 6.5, temperature cycling): > 11 mg/mL | solubility at 25 h ([1]; 25 °C, unbuffered water, final pH 3.8, temperature cycling): 23.6 mg/mL | solubility at 25 h ([1]; aqueous buffer, 0.1M phosphate buffered saline, final pH 6.5, crystalline compound, temperature cycling 40/15/25° C.): > 10 mg/mL | aqueous solubility (in words) ([1]; summary statement): high aqueous solubility | weight loss during initial drying cycle ([2]; 25° C., 1% RH): less than 0.1% | increase in weight by DVS analysis ([2]; relative humidities from 5% to 90% at 25° C.): ~0.06% | hygroscopicity (in words) ([2]; summary statement): only slightly hygroscopic
